Results on 14 compounds are retold here after ChEMBL document CHEMBL1145006 (J Med Chem, 2003).

Type in all cases: cell-based
Assay [1] deals with Somatostatin receptor type 4 (Homo sapiens, UniProt P31391). Nature of the assay: Binding affinity towards human Somatostatin receptor type 4 (sst4) using Tyr11-[125I]-SRIF as radioligand was determined in CHO cells. As to conditions: for Log Ki: cho.
The target in assay [2] is Somatostatin receptor type 1 (Homo sapiens, UniProt P30872). Description: Binding affinity towards human Somatostatin receptor type 1 (sst1) using Tyr11-[125I]-SRIF as radioligand was determined in CHO cells.
The target in assay [3] is Somatostatin receptor type 3 (Homo sapiens, UniProt P32745). Nature of the assay: Binding affinity towards human Somatostatin receptor type 3 (sst3) using Tyr11-[125I]-SRIF as radioligand was determined in CHO cells.
For assay [4], the target named is Somatostatin receptor type 5 (Homo sapiens, UniProt P35346). Description: Binding affinity towards human Somatostatin receptor type 5 (sst5) using Tyr11-[125I]-SRIF as radioligand was determined in COS cell.
The target of assay [5] is Somatostatin receptor type 2 (Homo sapiens, UniProt P30874). Description: Binding affinity towards human Somatostatin receptor type 2 (sst2) using Tyr11-[125I]-SRIF as radioligand was determined in CHO cells.

Positions of bridges follow the written chain, without caps; N, C: chain ends. Non-standard residues stand in square brackets, D forms with d. Residues, ends and D or L forms follow the SMILES beside them. Bounds are passed on as bounds.

Somatostatin receptor type 1, sequence (P30872 whole entry): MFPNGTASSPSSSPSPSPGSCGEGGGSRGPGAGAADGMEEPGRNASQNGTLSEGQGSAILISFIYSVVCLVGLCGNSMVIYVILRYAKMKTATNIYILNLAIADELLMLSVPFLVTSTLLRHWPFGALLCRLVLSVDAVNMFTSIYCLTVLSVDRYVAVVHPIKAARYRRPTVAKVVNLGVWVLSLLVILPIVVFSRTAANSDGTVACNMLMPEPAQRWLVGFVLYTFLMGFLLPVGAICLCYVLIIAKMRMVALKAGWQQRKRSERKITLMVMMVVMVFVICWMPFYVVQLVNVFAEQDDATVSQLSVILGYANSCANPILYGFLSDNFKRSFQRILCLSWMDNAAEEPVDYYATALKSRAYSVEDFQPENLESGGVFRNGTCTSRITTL
Somatostatin receptor type 3, sequence (P32745 whole entry): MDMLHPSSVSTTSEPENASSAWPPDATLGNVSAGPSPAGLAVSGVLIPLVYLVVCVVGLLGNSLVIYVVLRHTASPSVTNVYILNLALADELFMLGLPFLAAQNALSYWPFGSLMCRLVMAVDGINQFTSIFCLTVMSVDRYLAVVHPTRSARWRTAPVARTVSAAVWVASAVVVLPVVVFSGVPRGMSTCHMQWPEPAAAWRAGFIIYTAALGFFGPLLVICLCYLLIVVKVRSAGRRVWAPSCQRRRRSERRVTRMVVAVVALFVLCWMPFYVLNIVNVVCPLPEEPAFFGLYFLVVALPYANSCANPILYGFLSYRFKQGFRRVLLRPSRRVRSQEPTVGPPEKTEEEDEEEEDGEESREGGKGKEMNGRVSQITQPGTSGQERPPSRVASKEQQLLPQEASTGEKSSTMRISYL
Somatostatin receptor type 2, sequence (P30874 whole entry): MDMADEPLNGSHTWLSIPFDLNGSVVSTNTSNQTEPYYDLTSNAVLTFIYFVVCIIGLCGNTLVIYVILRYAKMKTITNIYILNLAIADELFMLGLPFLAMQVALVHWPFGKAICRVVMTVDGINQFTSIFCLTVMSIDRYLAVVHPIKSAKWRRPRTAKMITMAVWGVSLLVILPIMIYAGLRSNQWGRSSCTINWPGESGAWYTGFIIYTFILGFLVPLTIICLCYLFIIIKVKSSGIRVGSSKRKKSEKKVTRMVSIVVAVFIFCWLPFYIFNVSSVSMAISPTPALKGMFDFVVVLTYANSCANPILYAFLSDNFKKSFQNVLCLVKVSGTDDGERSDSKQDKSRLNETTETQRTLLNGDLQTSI
Somatostatin receptor type 5, sequence (P35346 whole entry): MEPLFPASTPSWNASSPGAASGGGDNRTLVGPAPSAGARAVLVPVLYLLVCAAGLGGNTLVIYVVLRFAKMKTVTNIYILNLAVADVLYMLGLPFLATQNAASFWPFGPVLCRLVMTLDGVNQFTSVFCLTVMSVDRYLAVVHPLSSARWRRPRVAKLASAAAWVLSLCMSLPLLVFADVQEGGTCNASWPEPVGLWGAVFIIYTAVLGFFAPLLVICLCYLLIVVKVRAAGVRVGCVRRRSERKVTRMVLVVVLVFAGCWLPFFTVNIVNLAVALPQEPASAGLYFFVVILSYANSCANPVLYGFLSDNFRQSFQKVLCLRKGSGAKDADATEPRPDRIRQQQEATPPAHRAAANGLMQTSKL
Somatostatin receptor type 4, sequence (P31391 whole entry): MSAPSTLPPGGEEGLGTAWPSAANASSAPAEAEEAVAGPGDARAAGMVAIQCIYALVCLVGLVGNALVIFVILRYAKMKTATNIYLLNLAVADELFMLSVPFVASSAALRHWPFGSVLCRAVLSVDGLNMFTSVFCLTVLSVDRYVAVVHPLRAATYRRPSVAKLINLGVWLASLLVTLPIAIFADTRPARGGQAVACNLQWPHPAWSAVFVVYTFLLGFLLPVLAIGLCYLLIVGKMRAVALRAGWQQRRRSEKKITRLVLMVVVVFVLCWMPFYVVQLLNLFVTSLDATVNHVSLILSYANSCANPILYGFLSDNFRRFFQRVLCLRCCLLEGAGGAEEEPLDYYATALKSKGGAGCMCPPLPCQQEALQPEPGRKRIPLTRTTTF

For orientation: Ki means the dissociation constant of the complex between target and ligand, obtained from inhibition or displacement. For `NCCCC[C@@H]1NC(=O)[C@@H](Cc2c[nH]c3ccccc23)NC(=O)[C@H](Cc2c[nH]cn2)NC(=O)[C@@H]2C[C@@H](OC(=O)NCCN)CN2C(=O)[C@H](Cc2ccccc2)NC(=O)[C@H](Cc2ccc(OCc3ccccc3)cc2)NC1=O`, the Log Ki in assay [1] was more than -7. The Ki in assay [2] was 3.98 nM; in assay [3] it was 0.794 nM; in assay [4], 3.16 nM; in assay [5], 0.794 nM.
`NCCCCCNC(=O)O[C@@H]1C[C@H]2C(=O)N[C@@H](Cc3ccccc3)C(=O)N[C@H](Cc3c[nH]c4ccccc34)C(=O)N[C@@H](CCCCN)C(=O)N[C@@H](Cc3ccc(OCc4ccccc4)cc3)C(=O)N[C@@H](Cc3ccccc3)C(=O)N2C1`: the Ki in assay [1] is 631 nM; in assay [2], 10 nM; in assay [3] it was 2 nM; in assay [4] it was 0.631 nM; in assay [5], 3.16 nM.
As to `NCCCC[C@@H]1NC(=O)[C@@H](Cc2c[nH]c3ccccc23)NC(=O)[C@H](CCCN=C(N)N)NC(=O)[C@@H]2C[C@@H](OC(=O)NCCN)CN2C(=O)[C@H](Cc2ccccc2)NC(=O)[C@H](Cc2ccc(OCc3ccccc3)cc2)NC1=O`, the Ki is 316 nM in assay [1]; 6.31 nM in assay [2]; 20 nM in assay [3]; 0.398 nM in assay [4]; 10 nM in assay [5].
With `NCCCC[C@@H]1NC(=O)[C@@H](Cc2c[nH]c3ccccc23)NC(=O)[C@H](Cc2ccc(O)cc2)NC(=O)[C@@H]2C[C@@H](OC(=O)NCCN)CN2C(=O)[C@H](Cc2ccccc2)NC(=O)[C@H](Cc2ccc(OCc3ccccc3)cc2)NC1=O`, the Log Ki in assay [1] is more than -7. Besides, the Ki in assay [2] was 1.58 nM; in assay [3] it was 0.631 nM; in assay [4] it was 0.251 nM; in assay [5] it was 0.794 nM.
In turn, `CN(C)CCNC(=O)O[C@@H]1C[C@H]2C(=O)N[C@@H](Cc3ccccc3)C(=O)N[C@H](Cc3c[nH]c4ccccc34)C(=O)N[C@@H](CCCCN)C(=O)N[C@@H](Cc3ccc(OCc4ccccc4)cc3)C(=O)N[C@@H](Cc3ccccc3)C(=O)N2C1` yielded a Log Ki in assay [1] of more than -7. The Ki in assay [2] was 1.58 nM; in assay [3], 0.316 nM; in assay [4] it was 0.1 nM; in assay [5], 0.501 nM.
In assay [1], `C[C@@H](O)[C@@H]1NC(=O)[C@H](CCCCN)NC(=O)[C@@H](Cc2c[nH]c3ccccc23)NC(=O)[C@H](Cc2ccccc2)NC(=O)[C@@H]2CCCN2C(=O)[C@H](Cc2ccccc2)NC1=O` gave a Log Ki of more than -7.
`C[C@H](N)C(=O)N[C@@H](C)C(=O)N[C@H]1CSSC[C@@H](C(N)=O)NC(=O)[C@H](CO)NC(=O)[C@H]([C@@H](C)O)NC(=O)[C@H](Cc2ccccc2)NC(=O)[C@H]([C@@H](C)O)NC(=O)[C@H](CCCCN)NC(=O)[C@H](Cc2c[nH]c3ccccc23)NC(=O)[C@H](Cc2ccccc2)NC(=O)[C@H](Cc2ccccc2)NC(=O)[C@H](CC(N)=O)NC(=O)[C@H](CCCCN)NC1=O` (H-AACKNFFWKTFTSC-NH2; disulfide 3-14) had a Log Ki in assay [1] of more than -9.7. The Ki was 0.2 nM in assay [2], 0.794 nM in assay [3], 1.26 nM in assay [4] and 0.158 nM in assay [5].
As for `C[C@H](N)C(=O)NCC(=O)N[C@H]1CSSC[C@@H](C(N)=O)NC(=O)[C@H](CO)NC(=O)[C@H]([C@@H](C)O)NC(=O)[C@H](Cc2ccccc2)NC(=O)[C@H]([C@@H](C)O)NC(=O)[C@H](CCCCN)NC(=O)[C@H](Cc2c[nH]c3ccccc23)NC(=O)[C@H](Cc2ccccc2)NC(=O)[C@H](Cc2ccccc2)NC(=O)[C@H](CC(N)=O)NC(=O)[C@H](C)NC1=O` (H-AGCANFFWKTFTSC-NH2; disulfide 3-14), in assay [1], the Log Ki was more than -9.5. For the same compound, the Ki is 0.794 nM in assay [2], 2.51 nM in assay [3], 1 nM in assay [4] and 0.501 nM in assay [5].
`C[C@H](N)C(=O)NCC(=O)N[C@H]1CSSC[C@@H](C(N)=O)NC(=O)[C@H](CO)NC(=O)[C@H]([C@@H](C)O)NC(=O)[C@H](Cc2ccccc2)NC(=O)[C@H]([C@@H](C)O)NC(=O)[C@H](CCCCN)NC(=O)[C@H](Cc2c[nH]c3ccccc23)NC(=O)[C@H](Cc2ccccc2)NC(=O)[C@H](Cc2ccccc2)NC(=O)[C@H](C)NC(=O)[C@H](CCCCN)NC1=O` (H-AGCKAFFWKTFTSC-NH2; disulfide 3-14) had a Log Ki in assay [1] of more than -9.7. For the same compound, the Ki is 0.251 nM in assay [2], 0.631 nM in assay [3], 0.158 nM in assay [4] and 0.126 nM in assay [5].
Turning to `C[C@H](N)C(=O)NCC(=O)N[C@H]1CSSC[C@@H](C(N)=O)NC(=O)[C@H](CO)NC(=O)[C@H]([C@@H](C)O)NC(=O)[C@H](Cc2ccccc2)NC(=O)[C@H]([C@@H](C)O)NC(=O)[C@H](CCCCN)NC(=O)[C@H](Cc2c[nH]c3ccccc23)NC(=O)[C@H](Cc2ccccc2)NC(=O)[C@H](C)NC(=O)[C@H](CC(N)=O)NC(=O)[C@H](CCCCN)NC1=O` (H-AGCKNAFWKTFTSC-NH2; disulfide 3-14), the Log Ki in assay [1] is more than -7.1. The Ki in assay [2] is 126 nM; in assay [3], 200 nM; in assay [4], 100 nM; in assay [5], 20 nM.
Taken in the same sequence, the figures for `C[C@H](N)C(=O)NCC(=O)N[C@H]1CSSC[C@@H](C(N)=O)NC(=O)[C@H](CO)NC(=O)[C@H]([C@@H](C)O)NC(=O)[C@H](Cc2ccccc2)NC(=O)[C@H]([C@@H](C)O)NC(=O)[C@H](CCCCN)NC(=O)[C@H](Cc2c[nH]c3ccccc23)NC(=O)[C@H](C)NC(=O)[C@H](Cc2ccccc2)NC(=O)[C@H](CC(N)=O)NC(=O)[C@H](CCCCN)NC1=O` (H-AGCKNFAWKTFTSC-NH2; disulfide 3-14) were more than -8.7, 20 nM, 25.1 nM, 79.4 nM and 20 nM.
The compound `CC(C)[C@@H]1NC(=O)[C@H](CCCCN)NC(=O)[C@@H](Cc2c[nH]c3ccccc23)NC(=O)[C@H](Cc2ccc(O)cc2)NC(=O)[C@@H](NC(=O)[C@H](N)Cc2ccc3ccccc3c2)CSSC[C@@H](C(=O)N[C@H](C(N)=O)[C@@H](C)O)NC1=O` [LANREOTIDE] gave a Ki in assay [2] of 501 nM.
Take `CC(C)[C@@H]1NC(=O)[C@H](CCCCN)NC(=O)[C@@H](Cc2c[nH]c3ccccc23)NC(=O)[C@H](Cc2ccc(O)cc2)NC(=O)[C@H](C)N(C)C(=O)[C@H](Cc2ccccc2)NC1=O` [SEGLITIDE]: the Ki in assay [2] was more than 1000 nM; in assay [3], 31.6 nM; in assay [4] it was 12.6 nM.
`CC(C)[C@@H]1NC(=O)[C@H](CCCCN)NC(=O)[C@@H](Cc2c[nH]c3ccccc23)NC(=O)[C@H](Cc2ccc(O)cc2)NC(=O)[C@@H](NC(=O)[C@H](N)Cc2ccccc2)CSSC[C@@H](C(=O)N[C@@H](Cc2c[nH]c3ccccc23)C(N)=O)NC1=O` [VAPREOTIDE] (H-[dF]CY[dW]KVCW-NH2; disulfide 2-7): the Ki in assay [1] was 158 nM; in assay [2] it was 158 nM; in assay [3], 20 nM; in assay [5] it was 0.0794 nM.
